Source: patent US7300946B2, “N-(substituted arylmethyl)-4-(disubstituted methyl) piperidines and pyridines” (Bayer CropScience AG, priority 2002, dated 2007)

System: tobacco budworm (Heliothis virescens [Fabricius])
Assay: surface-treated diet test against the tobacco budworm
Assay type: in vivo
Details: tobacco budworm second instar larvae, surface-treated diet, 0.25 millimoles of candidate insecticide on the surface of the diet, five-day exposure; for Percent Mortality: compared to total number of insects infested; for Percent Growth Inhibition: inhibition of insect weight relative to untreated controls
Method in brief: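 Wheat germ artificial diet surface-treated with 40 µL of 50 mM DMSO stock diluted 1:7 in 1:1 water/acetone (0.25 millimolar on diet), or sub-multiples for rate tests. One second-instar larva per well, 25° C, 60% RH, 5 days; percent weight inhibition vs DMSO controls and percent mortality.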

Row | Structure (SMILES) | Percent Mortality [%] | Percent Growth Inhibition [%]
1 | CCn1nnc(-c2ccc(CN3CCC(C(OC(=O)Nc4ccc(C(F)(F)F)cc4)c4cc(F)cc(F)c4)CC3)cc2)n1 (centres unmarked) [Compound 594] | 100 | 100
2 | CCn1nnc(-c2ccc(CN3CCC(C(OC(=O)Nc4ccc(Cl)cc4)c4ccc(C)cc4)CC3)cc2)n1 (centres unmarked) [Compound 595] | 100 | 100
3 | CCn1nnc(-c2ccc(CN3CCC(C(OC(=O)Nc4ccc(Cl)c(Cl)c4)c4ccc(C)cc4)CC3)cc2)n1 (centres unmarked) [Compound 596] | 100 | 100
4 | CCn1nnc(-c2ccc(CN3CCC(C(OC(=O)Nc4ccc(F)c(F)c4)c4ccc(C)cc4)CC3)cc2)n1 (centres unmarked) [Compound 597] | 100 | 100
5 | CCn1nnc(-c2ccc(CN3CCC(C(OC(=O)Nc4cc(F)cc(F)c4)c4ccc(C)cc4)CC3)cc2)n1 (centres unmarked) [Compound 598] | 100 | 100
6 | CCn1nnc(-c2ccc(CN3CCC(C(OC(=O)Nc4cccc(C(F)(F)F)c4)c4ccc(C)cc4)CC3)cc2)n1 (centres unmarked) [Compound 599] | 100 | 100
7 | CCn1nnc(-c2ccc(CN3CCC(C(OC(=O)Nc4ccc(C(F)(F)F)cc4)c4ccc(C)cc4)CC3)cc2)n1 (centres unmarked) [Compound 600] | 100 | 100
8 | CCn1nnc(-c2ccc(CN3CCC(C(OC(=O)Nc4ccc(Cl)cc4)c4ccc(OC)cc4)CC3)cc2)n1 (centres unmarked) [Compound 601] | 100 | 100
9 | CCn1nnc(-c2ccc(CN3CCC(C(OC(=O)Nc4ccc(Cl)c(Cl)c4)c4ccc(OC)cc4)CC3)cc2)n1 (centres unmarked) [Compound 602] | 100 | 100
10 | CCn1nnc(-c2ccc(CN3CCC(C(OC(=O)Nc4ccc(F)c(F)c4)c4ccc(OC)cc4)CC3)cc2)n1 (centres unmarked) [Compound 603] | 100 | 100
11 | CCn1nnc(-c2ccc(CN3CCC(C(OC(=O)Nc4cc(F)cc(F)c4)c4ccc(OC)cc4)CC3)cc2)n1 (centres unmarked) [Compound 604] | 100 | 100
12 | CCn1nnc(-c2ccc(CN3CCC(C(OC(=O)Nc4cccc(C(F)(F)F)c4)c4ccc(OC)cc4)CC3)cc2)n1 (centres unmarked) [Compound 605] | 100 | 100
13 | CCn1nnc(-c2ccc(CN3CCC(C(OC(=O)Nc4ccc(C(F)(F)F)cc4)c4ccc(OC)cc4)CC3)cc2)n1 (centres unmarked) [Compound 606] | 100 | 100
14 | CCn1nnc(-c2ccc(CN3CCC(C(OC(=O)Nc4ccc(-c5ccccc5)cc4)c4ccc(OC)cc4)CC3)cc2)n1 (centres unmarked) [Compound 607] | 100 | 100
15 | CCn1nnc(-c2ccc(CN3CCC(C(OC(=O)Nc4ccc(Cl)cc4)c4ccc(OC)c(OC)c4)CC3)cc2)n1 (centres unmarked) [Compound 608] | 83 | 100
16 | CCn1nnc(-c2ccc(CN3CCC(C(OC(=O)Nc4cc(F)cc(F)c4)c4ccc(OC)c(OC)c4)CC3)cc2)n1 (centres unmarked) [Compound 609] | 33 | 100
17 | CCn1nnc(-c2ccc(CN3CCC(C(OC(=O)Nc4cc(F)cc(F)c4)c4ccc(C(F)(F)F)cc4)CC3)cc2)n1 (centres unmarked) [Compound 610] | 100 | 100
18 | CCn1nnc(-c2ccc(CN3CCC(C(OC(=O)Nc4ccc(Cl)cc4)c4ccc(-c5ccccc5)cc4)CC3)cc2)n1 (centres unmarked) [Compound 611] | 83 | 100
19 | CCn1nnc(-c2ccc(CN3CCC(C(OC(=O)Nc4ccc(Cl)c(Cl)c4)c4ccc(-c5ccccc5)cc4)CC3)cc2)n1 (centres unmarked) [Compound 612] | 0 | 48

Row | Structure (SMILES) | Percent Mortality [%] | Percent Growth Inhibition [%]
20 | CCn1nnc(-c2ccc(CN3CCC(C(OC(=O)Nc4ccc(F)c(F)c4)c4ccc(-c5ccccc5)cc4)CC3)cc2)n1 (centres unmarked) [Compound 613] | 83 | 100
21 | CCn1nnc(-c2ccc(CN3CCC(C(OC(=O)Nc4cc(F)cc(F)c4)c4ccc(-c5ccccc5)cc4)CC3)cc2)n1 (centres unmarked) [Compound 614] | 16 | 99
22 | CCn1nnc(-c2ccc(CN3CCC(C(OC(=O)Nc4ccc(C(F)(F)F)cc4)c4ccc(-c5ccccc5)cc4)CC3)cc2)n1 (centres unmarked) [Compound 615] | 17 | 72
23 | CCn1nnc(-c2ccc(CN3CCC(C(OC(=O)Nc4ccc(Cl)cc4)c4ccc(Oc5ccccc5)cc4)CC3)cc2)n1 (centres unmarked) [Compound 616] | 100 | 100
24 | CCn1nnc(-c2ccc(CN3CCC(C(OC(=O)Nc4ccc(Cl)c(Cl)c4)c4ccc(Oc5ccccc5)cc4)CC3)cc2)n1 (centres unmarked) [Compound 617] | 0 | 14
25 | CCn1nnc(-c2ccc(CN3CCC(C(OC(=O)Nc4ccc(F)c(F)c4)c4ccc(Oc5ccccc5)cc4)CC3)cc2)n1 (centres unmarked) [Compound 618] | 100 | 100
26 | CCn1nnc(-c2ccc(CN3CCC(C(OC(=O)Nc4cc(F)cc(F)c4)c4ccc(Oc5ccccc5)cc4)CC3)cc2)n1 (centres unmarked) [Compound 619] | 17 | 100
27 | CCn1nnc(-c2ccc(CN3CCC(C(OC(=O)Nc4cccc(C(F)(F)F)c4)c4ccc(Oc5ccccc5)cc4)CC3)cc2)n1 (centres unmarked) [Compound 620] | 0 | 29
28 | CCn1nnc(-c2ccc(CN3CCC(C(OC(=O)Nc4ccc(-c5ccccc5)cc4)c4ccc(Oc5ccccc5)cc4)CC3)cc2)n1 (centres unmarked) [Compound 621] | 0 | 4
29 | CCn1nnc(-c2ccc(CN3CCC(C(OC(=O)Nc4ccc(Oc5ccccc5)cc4)c4ccc(Oc5ccccc5)cc4)CC3)cc2)n1 (centres unmarked) [Compound 622] | 0 | 4
30 | O=C(Nc1ccc(Cl)cc1)OC(c1ccc(C(F)(F)F)cc1)C1CCN(Cc2ccc(-c3ccccn3)cc2)CC1 (centres unmarked) [Compound 627] | 100 | 100
31 | O=C(Nc1cc(F)cc(F)c1)OC(c1ccc(C(F)(F)F)cc1)C1CCN(Cc2ccc(-c3ccccn3)cc2)CC1 (centres unmarked) [Compound 628] | 100 | 100
32 | O=C(Nc1ccc(Cl)cc1)OC(c1ccc(Cl)cc1)C1CCN(Cc2ccc(Oc3ccccn3)cc2)CC1 (centres unmarked) [Compound 629] | 100 | 100
33 | O=C(Nc1ccc(F)cc1)OC(c1ccc(Cl)cc1)C1CCN(Cc2ccc(Oc3ccccn3)cc2)CC1 (centres unmarked) [Compound 630] | 100 | 100
34 | O=C(Nc1cc(F)cc(F)c1)OC(c1ccc(Cl)cc1)C1CCN(Cc2ccc(Oc3ccccn3)cc2)CC1 (centres unmarked) [Compound 631] | 100 | 100
35 | Cc1cc(C)cc(NC(=O)OC(c2ccc(Cl)cc2)C2CCN(Cc3ccc(Oc4ccccn4)cc3)CC2)c1 (centres unmarked) [Compound 632] | 100 | 100
36 | COc1cc(NC(=O)OC(c2ccc(Cl)cc2)C2CCN(Cc3ccc(Oc4ccccn4)cc3)CC2)cc(OC)c1 (centres unmarked) [Compound 633] | 50 | 100
37 | O=C(Nc1cccc(C(F)(F)F)c1)OC(c1ccc(Cl)cc1)C1CCN(Cc2ccc(Oc3ccccn3)cc2)CC1 (centres unmarked) [Compound 634] | 100 | 100
